Results: US7700577B2, “Carbohydrate based anti-bacterials” (Alchemia Limited, priority 2002, dated 2010)

How the values were obtained:
[1] = system: E. coli; test: MIC testing, broth microdilution (NCCLS), E. coli; assay type: cell-based; conditions: E. coli after 24 hours exposure
Source text: (§1) The broth microdilution format of the National Committee for Clinical Laboratory Standards (NCCLS) approved standard for susceptibility tests as outlined in M7-A4 “methods for dillution Antimicrobial susceptibility tests for bacteria that grow aerobically; approved standard—fifth edition”, January 2000 was utilized for minimum inhibitory concentration testing in Mueller-Hinton broth. The broth for Streptococcus pyogenes testing was supplemented with 2% laked horse blood. A positive result in initial testing was determined by complete inhibition of macroscopic bacterial growth at a concentration of 128 micrograms per mL after incubation for 16 to 24 hours at 37 degrees C. In the case of Micrococcus luteus, incubation was at 30 degrees C. […] Bacterial Types Are: • SA24 S. aureus after 24 hours exposure • SA48 S. aureus after 48 hours exposure • EC24 E. coli after 24 hours exposure

[2] = system: S. aureus; test: MIC testing, broth microdilution (NCCLS), S. aureus; assay type: cell-based, Staphylococcus aureus; conditions: for SA24 (MIC): S. aureus after 24 hours exposure; for SA48 (MIC): S. aureus after 48 hours exposure
Source text: as §1

[3] = system: Staphylococcus aureus (ATCC43300) MRSA; test: MIC testing, additional organisms: Staphylococcus aureus MRSA; assay type: cell-based
Source text: (§2) The broth microdilution format of the National Committee for Clinical Laboratory Standards (NCCLS) approved standard for susceptibility tests as outlined in M7-A4 “methods for dillution Antimicrobial susceptibility tests for bacteria that grow aerobically; approved standard—fifth edition”, January 2000 was utilized for minimum inhibitory concentration testing in Mueller-Hinton broth. The broth for Streptococcus pyogenes testing was supplemented with 2% laked horse blood. A positive result in initial testing was determined by complete inhibition of macroscopic bacterial growth at a concentration of 128 micrograms per mL after incubation for 16 to 24 hours at 37 degrees C. In the case of Micrococcus luteus, incubation was at 30 degrees C.
(§3) Bacterial Types Are: • SA24 S. aureus after 24 hours exposure • SA48 S. aureus after 48 hours exposure • EC24 E. coli after 24 hours exposure
(§4) The following compounds were tested against additional organisims with the following results. • 1. Micrococcus luteus (ATCC272) • 2. Staphylococcus aureus (ATCC29213) • 3. Staphylococcus aureus (ATCC43300) MRSA • 4. Enterococcus faecalis (ATCC29212) • 5. Enterococcus faecalis (ATCCS 1299) Vancomycin resistant • 6. Streptococcus pyrogenes (ATCC8668)

[4] = system: Staphylococcus aureus (ATCC29213); test: MIC testing, additional organisms: Staphylococcus aureus ATCC29213; assay type: cell-based
Source text: as §2, §3, §4

[5] = system: Micrococcus luteus (ATCC272); test: MIC testing, additional organisms: Micrococcus luteus; assay type: cell-based; conditions: incubation at 30 degrees C
Source text: as §2, §3, §4

[6] = system: Enterococcus faecalis (ATCCS 1299) Vancomycin resistant; test: MIC testing, additional organisms: Enterococcus faecalis vancomycin resistant; assay type: cell-based
Source text: as §2, §3, §4

[7] = system: Streptococcus pyrogenes (ATCC8668); test: MIC testing, additional organisms: Streptococcus pyrogenes; assay type: cell-based; conditions: broth supplemented with 2% laked horse blood
Source text: as §2, §3, §4

[8] = system: Enterococcus faecalis (ATCC29212); test: MIC testing, additional organisms: Enterococcus faecalis ATCC29212; assay type: cell-based
Source text: as §2, §3, §4

Row | SMILES | EC24 (MIC) [1] | SA24 (MIC) [2] | SA48 (MIC) [2] | MIC, organism 3 [3] | MIC, organism 2 [4] | MIC, organism 1 [5] | MIC, organism 5 [6] | MIC, organism 6 [7] | MIC, organism 4 [8]
1 | N=C(Nc1cccc(C(F)(F)F)c1)NC1[C@H](O[C@@H]2C(NC(=N)Nc3cccc(C(F)(F)F)c3)COC(CO)[C@@H]2NCc2ccc(-c3ccccc3)cc2)OC(CO)[C@@H](O)[C@@H]1O (stereo partly shown) [compound 20] | + (+ indicates an MIC value of less than 128 micrograms per mL) | + (+ indicates an MIC value of less than 128 micrograms per mL) | + (+ indicates an MIC value of less than 128 micrograms per mL) |  |  |  |  |  | 
2 | N=C(Nc1cccc(C(F)(F)F)c1)NC1[C@H](O[C@@H]2C(NC(=N)Nc3cccc(C(F)(F)F)c3)COC(CO)[C@@H]2NC(=N)Nc2ccc(-c3ccccc3)cc2)OC(CO)[C@@H](O)[C@@H]1O (stereo partly shown) [compound 21] | + (+ indicates an MIC value of less than 128 micrograms per mL) | + (+ indicates an MIC value of less than 128 micrograms per mL) | + (+ indicates an MIC value of less than 128 micrograms per mL) |  |  |  |  |  | 
3 | CC(C)=CCCC(C)=CCN[C@H]1C(CO)OCC(NC(=N)Nc2cccc(C(F)(F)F)c2)[C@H]1O[C@@H]1OC(CO)[C@@H](O)[C@H](O)C1NC(=N)Nc1cccc(C(F)(F)F)c1 (stereo partly shown) [compound 23] | + (+ indicates an MIC value of less than 128 micrograms per mL) | + (+ indicates an MIC value of less than 128 micrograms per mL) | + (+ indicates an MIC value of less than 128 micrograms per mL) |  |  |  |  |  | 
4 | CC(C)=CCCC(C)=CCCC(C)=CCN[C@H]1C(CO)OCC(NC(=N)Nc2cccc(C(F)(F)F)c2)[C@H]1O[C@@H]1OC(CO)[C@@H](O)[C@H](O)C1NC(=N)Nc1cccc(C(F)(F)F)c1 (stereo partly shown) [compound 24] | + (+ indicates an MIC value of less than 128 micrograms per mL) | + (+ indicates an MIC value of less than 128 micrograms per mL) | + (+ indicates an MIC value of less than 128 micrograms per mL) |  |  |  |  |  | 
5 | N=C(Nc1cccc(C(F)(F)F)c1)NC1[C@H](O[C@@H]2C(NC(=N)Nc3cccc(C(F)(F)F)c3)COC(CO)[C@@H]2NC(=O)C(N)c2ccc(-c3ccccc3)cc2)OC(CO)[C@@H](O)[C@@H]1O (stereo partly shown) [compound 25] | + (+ indicates an MIC value of less than 128 micrograms per mL) | + (+ indicates an MIC value of less than 128 micrograms per mL) | + (+ indicates an MIC value of less than 128 micrograms per mL) |  |  |  |  |  | 
6 | N=C(Nc1cccc(C(F)(F)F)c1)NC1[C@H](O[C@@H]2C(NC(=N)Nc3cccc(C(F)(F)F)c3)COC(CO)[C@@H]2NC(=O)C(N)Cc2ccc(-c3ccccc3)cc2)OC(CO)[C@@H](O)[C@@H]1O (stereo partly shown) [compound 26] | + (+ indicates an MIC value of less than 128 micrograms per mL) | + (+ indicates an MIC value of less than 128 micrograms per mL) | + (+ indicates an MIC value of less than 128 micrograms per mL) |  |  |  |  |  | 
7 | O=C(Nc1cccc(C(F)(F)F)c1)NC1[C@H](O[C@@H]2C(NS(=O)(=O)c3cccc(C(F)(F)F)c3)COC(CO)[C@@H]2NC(=O)c2ccc(-c3ccccc3)cc2)OC(CO)[C@@H](O)[C@@H]1O (stereo partly shown) [compound 37] | − (− indicates an MIC of greater then 128 micrograms per mL) | + (+ indicates an MIC value of less than 128 micrograms per mL) | + (+ indicates an MIC value of less than 128 micrograms per mL) |  |  |  |  |  | 
8 | Cc1ccc(S(=O)(=O)NC2COC(CO)[C@H](NC(=O)c3ccc(-c4ccccc4)cc3)[C@@H]2O[C@@H]2OC(CO)[C@@H](O)[C@H](O)C2NC(=O)Nc2cccc(C(F)(F)F)c2)cc1 (stereo partly shown) [compound 39] | − (− indicates an MIC of greater then 128 micrograms per mL) | + (+ indicates an MIC value of less than 128 micrograms per mL) | + (+ indicates an MIC value of less than 128 micrograms per mL) |  |  |  |  |  | 
9 | Cc1ccc(NC(=N)NC2[C@H](O[C@@H]3C(NC(=O)Nc4cccc(C(F)(F)F)c4)COC(CO)[C@@H]3NC(=O)c3ccc(-c4ccccc4)cc3)OC(CO)[C@@H](O)[C@@H]2O)cc1 (stereo partly shown) [compound 46] | − (− indicates an MIC of greater then 128 micrograms per mL) |  | + (+ indicates an MIC value of less than 128 micrograms per mL) |  |  |  |  |  | 
10 | O=C(Nc1cccc(C(F)(F)F)c1)NC1COC(CO)[C@H](NC(=O)c2ccc(-c3ccccc3)cc2)[C@@H]1O[C@@H]1OC(CO)[C@@H](O)[C@H](O)C1NS(=O)(=O)c1cccc(C(F)(F)F)c1 (stereo partly shown) [compound 48] | − (− indicates an MIC of greater then 128 micrograms per mL) | + (+ indicates an MIC value of less than 128 micrograms per mL) | + (+ indicates an MIC value of less than 128 micrograms per mL) |  |  |  |  |  | 
11 | Cc1ccc(S(=O)(=O)NC2[C@H](O[C@@H]3C(NC(=O)Nc4cccc(C(F)(F)F)c4)COC(CO)[C@@H]3NC(=O)c3ccc(-c4ccccc4)cc3)OC(CO)[C@@H](O)[C@@H]2O)cc1 (stereo partly shown) [compound 49] | − (− indicates an MIC of greater then 128 micrograms per mL) |  | + (+ indicates an MIC value of less than 128 micrograms per mL) |  |  |  |  |  | 
12 | CCCCCCCCCCN[C@H]1C(CO)OCC(NC(=O)Nc2cccc(C(F)(F)F)c2)[C@H]1O[C@@H]1OC(CO)[C@@H](O)[C@H](O)C1NC(=O)Nc1cccc(C(F)(F)F)c1 (stereo partly shown) [compound 56] |  | + (+ indicates an MIC value of less than 128 micrograms per mL) | + (+ indicates an MIC value of less than 128 micrograms per mL) | + (+ indicates an MIC value of less than 128 micrograms per mL) | + (+ indicates an MIC value of less than 128 micrograms per mL) | + (+ indicates an MIC value of less than 128 micrograms per mL) | + (+ indicates an MIC value of less than 128 micrograms per mL) | + (+ indicates an MIC value of less than 128 micrograms per mL) | + (+ indicates an MIC value of less than 128 micrograms per mL)
13 | CCCCCCCC(=O)Nc1ccc(C(=O)NC2C(CO)OCC(NC(=O)Nc3cccc(C(F)(F)F)c3)C2OC2OC(CO)C(O)C(O)C2NC(=O)Nc2cccc(C(F)(F)F)c2)cc1 (stereo not shown) [compound 65] |  | + (+ indicates an MIC value of less than 128 micrograms per mL) | + (+ indicates an MIC value of less than 128 micrograms per mL) | − (− indicates an MIC of greater then 128 micrograms per mL) | − (− indicates an MIC of greater then 128 micrograms per mL) | + (+ indicates an MIC value of less than 128 micrograms per mL) | − (− indicates an MIC of greater then 128 micrograms per mL) | + (+ indicates an MIC value of less than 128 micrograms per mL) | + (+ indicates an MIC value of less than 128 micrograms per mL)
14 | CCCCCCCCCCS(=O)(=O)NC1C(CO)OCC(NC(=O)Nc2cccc(C(F)(F)F)c2)C1OC1OC(CO)C(O)C(O)C1NC(=O)Nc1cccc(C(F)(F)F)c1 (stereo not shown) [compound 69] |  | + (+ indicates an MIC value of less than 128 micrograms per mL) |  | + (+ indicates an MIC value of less than 128 micrograms per mL) | + (+ indicates an MIC value of less than 128 micrograms per mL) | + (+ indicates an MIC value of less than 128 micrograms per mL) | − (− indicates an MIC of greater then 128 micrograms per mL) | + (+ indicates an MIC value of less than 128 micrograms per mL) | + (+ indicates an MIC value of less than 128 micrograms per mL)
15 | CCCCCC(=O)NC1C(CO)OCC(NC(=O)Nc2cccc(C(F)(F)F)c2)C1OC1OC(CO)C(O)C(O)C1NC(=O)Nc1cccc(C(F)(F)F)c1 (stereo not shown) [compound 70] |  | − (− indicates an MIC of greater then 128 micrograms per mL) |  | − (− indicates an MIC of greater then 128 micrograms per mL) | − (− indicates an MIC of greater then 128 micrograms per mL) | + (+ indicates an MIC value of less than 128 micrograms per mL) | − (− indicates an MIC of greater then 128 micrograms per mL) | + (+ indicates an MIC value of less than 128 micrograms per mL) | + (+ indicates an MIC value of less than 128 micrograms per mL)
